{
  "source": "patent USRE39220E1",
  "about": "“Peptide-mediated gene transfer” (Genetic Applications, LLC, priority 1994, dated 2006)",
  "format_in_all_cases": "cell-based",
  "key": {"[1]": {"tested_on": "Mouse fibroblast cell line (L cells)", "experiment": "Selection of stably transfected cell lines (G418-resistant colonies)", "settings": "G418 400 μg/ml selection, colonies counted two weeks after start of selection, similar with hygromycin", "text": "The DNA or other polynucleotide to be transfected, such as a plasmid containing a gene for a drug resistance marker or coding a protein needed for expression in the host cell, is complexed to a synthetic polypeptide molecule in different weight ratios in an isotonic buffer solution. For example the weight ratio of DNA:polypeptide can be between 1:1 and 10:1, although ratios outside of this range may be evaluated empirically for achieving the objects of the present invention. An isotonic buffer solution such as Hanks buffered salt solution or HEPES buffered saline may be used for complexing DNA to polypeptide.\n(§1) While the complex is formed, the cells that are to be transfected either remain attached to a substratum, such as a tissue culture dish, or are pelleted (for cells that grow in suspension). The cells are treated with a hypertonic primer solution, such as a concentration of 0.3M-0.6M sucrose and 10% PEG in either Tris-HCl or HEPES (pH 7.2) buffered solution, for 3-5 mins at room temperature. The primer solution then is removed.\nAfter the DNA-polypeptide complex is formed, it is made hypotonic. […]\nTransfected cells are grown in regular growth medium for 48 hours, and then plated in selective medium containing 400 μg/ml of G418. […] The number of G418-resistant colonies was determined two weeks after the initiation of selection. […]"}, "[2]": {"tested_on": "mouse erythroleukemia cell line, C19TK", "experiment": "Stable transfection of hematopoietic cells in suspension, hygromycin selection (pDR2)", "settings": "pDR2, hygromycin selection in microtiter plates, plated 48 hours after transfection", "method": "A mouse erythroleukemia cell line, C19TK, also was used as a representative cell line for testing the transfection efficiency of the present invention with respect to hematopoietic cells. The expression vector, pDR2, which carries a hygromycin-resistance gene, was used for these studies, C19TK cells are exquisitely sensitive for the antibiotic hygromycin.\nBriefly, about million cells are spun down and the cell pellet is treated with primer. The cells are then exposed to DNA-polypeptide complex under hypotonic condition. Forty-eight hours after transfection, a known number of cells are plated in microtiter plates with hygromycin. The number of wells with growing population of cells was enumerated to determine the transfection efficiency. The stable transfection efficiency was about 1-5%, as compared to most of the other non-virus-based methods that are very poor. Thus, the method described herein is very efficient for stable transfection efficiency both for hematopoietic and non hematopoietic cell lines. […] See Gilboa, et al. (1986), Miller, et al. (1986), Stuhlmann, et al. (1989), Miller, et al. (1989), and Zwiebel, et al. (1989), each cited above."}, "COS cells": {"tested_on": "COS cells", "experiment": "Transient expression of β-gal reporter gene (CH110) in COS cells", "settings": "DNA-polypeptide 2.5-5.0 μg, stained 48 hrs after transfection", "method": "as §1\nAfter the DNA-polypeptide complex is formed, it is made hypotonic. The complex solution is hypotonic when it has a lesser osmotic pressure than a 0.15M or 0.9% solution of NaCl. For example, the complex in isotonic buffer can be made […] hypotonic or 0.075M simply by adding an amount of distilled water that is equal to the volume of the complex in isotonic buffer. The hypotonic complex solution then is added to the cells that have been treated with the primer solution. Cells remain in the hypotonic DNA-polypeptide solution for 3-4 minutes. Fresh medium then is added to the cells to rinse away excess DNA-polypeptide solution. Thereafter, the cells are grown normally.\nThree different cell lines were used to test the efficiency of gene transfer of the new method. Mouse fibroblast cell line (L cells), mouse erythroleukemia cell line (C19TK), and COS cells. The COS cell line was used to establish conditions for transient gene expression. […]"}},
  "data": [
    {"sequence": "PKKKRKVSGGGGGKKKKKKKKKKKK [Peptide-Mediated Gene Transfer, synthetic polypeptide (NLS peptide, neutral hinge, polylysine chain) linked electrostatically to DNA, forming a polypeptide-DNA complex]", "values": [
      {"measurement": "Stable Transfection Efficiency", "setting": "[1]", "value": "5-10%"},
      {"measurement": "Stable Transfection Efficiency", "setting": "[1]; listed as DNA-polypeptide complex", "value": "5-10%"},
      {"measurement": "Stable Transfection Efficiency", "setting": "[2]", "value": "1-5%"},
      {"measurement": "cells positive for the expression of the β-gal reporter gene", "setting": "COS cells", "value": "Forty to fifty"}
    ]}
  ]
}
